Measurements reported in the RepoRT retention time repository.

Assay: RP, Waters ACQUITY UPLC BEH C18, 150 × 2.1 mm, 1.7 µm, 40 °C, 0.4 mL/min, estimated dead time 0.83 min; A: water + 0.1% formic acid, pH 3; B: acetonitrile; gradient (min/%B) 0/2 1.5/8 3.5/14 6/16 8/25 9.2/98 10.5/2 12/2
Settings: stereoisomer not certain

| SMILES | LC retention time [min] |
| --- | --- |
| O=c1cc(-c2ccc(O)cc2)oc2c(C3OCC(O)C(O)C3O)c(O)c(C3OC(CO)C(O)C(O)C3O)c(O)c12 (stereo not drawn) [apigenin 6-C-glucoside-8-C-arabinoside] | 4.93 |
| COc1cc(-c2cc(=O)c3c(O)cc(OC4OC(COC(=O)C=Cc5ccc(O)cc5)C(O)C(O)C4O)cc3o2)ccc1O (stereo not drawn) [chrysoeriol 7-O-[6''-coumaroyl]-glucoside] | 10.6 |
| COc1cc(-c2cc(=O)c3c(O)cc(OC4OC(COC5OC(CO)C(O)C(O)C5O)C(O)C(O)C4O)cc3o2)ccc1O (stereo not drawn) [chrysoeriol 7-O-diglucoside] | 8.42 |
| COc1cc(C=CC(=O)OCC2OC(OC3C(c4c(O)cc5oc(-c6ccc(O)cc6)cc(=O)c5c4O)OC(CO)C(O)C3O)C(O)C(O)C2O)ccc1O (stereo not drawn) [feruloyl-isovitexin 2''-O-glucoside] | 7.88 |
| NC(N)=NCCCCNC(=O)C=Cc1ccc2c(c1)C(C(=O)NCCCCN=C(N)N)C(c1ccc(O)cc1)O2 (stereo not drawn) [hordatine A] | 4.52 |
| COc1cc(C=CC(=O)NCCCCN=C(N)N)cc2c1OC(c1ccc(O)cc1)C2C(=O)NCCCCN=C(N)N (stereo not drawn) [hordatine B] | 4.42 |
| COc1cc(C=CC(=O)OCC2OC(Oc3cc4oc(-c5ccc(O)c(O)c5)cc(=O)c4c(O)c3C3OC(CO)C(O)C(O)C3O)C(O)C(O)C2O)ccc1O (stereo not drawn) [isoorientin 7-O-[6''-feruloyl]-glucoside] | 6.23 |
| CC1OC(OC2C(Oc3cc4oc(-c5ccc(O)c(O)c5)cc(=O)c4c(O)c3C3OC(CO)C(O)C(O)C3O)OC(CO)C(O)C2O)C(O)C(O)C1O (stereo not drawn) [isoorientin 7-O-rhamnosylglucoside] | 4.69 |
| COc1cc(-c2cc(=O)c3c(O)c(C4OC(CO)C(O)C(O)C4OC4OCC(O)C(O)C4O)c(O)cc3o2)ccc1O (stereo not drawn) [isoscoparin 2''-O-arabinoside] | 6.97 |
| COc1cc(-c2cc(=O)c3c(O)c(C4OC(CO)C(O)C(O)C4O)c(OC4OC(COC(=O)C=Cc5cc(OC)c(O)c(OC)c5)C(O)C(O)C4O)cc3o2)ccc1O (stereo not drawn) [isoscoparin 7-O-[6''-sinapoyl]-glucoside] | 7.62 |
| O=c1cc(-c2ccc(O)cc2)oc2cc(O)c(C3OC(CO)C(O)C(O)C3OC3OCC(O)C(O)C3O)c(O)c12 (stereo not drawn) [isovitexin 2''-O-arabinoside] | 5.62 |
| O=c1cc(-c2ccc(O)cc2)oc2cc(OC3OC(CO)C(O)C(O)C3O)c(C3OC(CO)C(O)C(O)C3O)c(O)c12 (stereo not drawn) [isovitexin 7-O-glucoside (saponarin)] | 4.61 |
| CC1OC(OC2C(Oc3cc4oc(-c5ccc(O)cc5)cc(=O)c4c(O)c3C3OC(CO)C(O)C(O)C3O)OC(CO)C(O)C2O)C(O)C(O)C1O (stereo not drawn) [isovitexin 7-O-rhamnosylglucoside] | 4.81 |
| O=c1cc(-c2ccc(O)cc2)oc2c(C3OC(CO)C(O)C(O)C3O)c(O)c(C3OC(CO)C(O)C(O)C3O)c(O)c12 (stereo not drawn) [isovitexin 8-C-glucoside] | 5.25 |
| O=c1cc(-c2ccc(O)c(O)c2)oc2c(C3OC(CO)C(O)C(O)C3O)c(O)c(C3OCC(O)C(O)C3O)c(O)c12 (stereo not drawn) [luteolin 6-C-arabinoside 8-C-glucoside] | 4.87 |
| COc1cc(-c2cc(=O)c3c(O)c(C4OC(CO)C(O)C(O)C4OC4OCC(OC(=O)C=Cc5cc(OC)c(O)c(OC)c5)C(O)C4O)c(O)cc3o2)ccc1O (stereo not drawn) [sinapoyl-isoscoparin 2''-O-arabinoside] | 9.65 |
| COc1cc(C=CC(=O)OC2COC(OC3C(c4c(O)cc5oc(-c6ccc(O)cc6)cc(=O)c5c4O)OC(CO)C(O)C3O)C(O)C2O)cc(OC)c1O (stereo not drawn) [sinapoyl-isovitexin 2''-O-arabinoside] | 9.32 |
| COc1cc(C=CC(=O)OCC2OC(Oc3cc(O)c4c(=O)cc(-c5cc(OC)c(O)c(OC)c5)oc4c3)C(O)C(O)C2O)cc(OC)c1O (stereo not drawn) [sinapoyl-tricin 7-O-glucoside] | 4.56 |
